In PMC8126183, “Three LysM effectors of Zymoseptoria tritici collectively disarm chitin‐triggered plant immunity” (Molecular Plant Pathology, 2021):

Key:
Mg1LysM = biological target: T1, Mg1LysM (Zymoseptoria tritici, UniProt F9XHX3); assay: ligand-induced polymerization, centrifugation pellet with methylene blue; type: binding; settings: 200 µM protein stock mixed 1:1 with 2 mM chitohexaose; room temperature overnight; positive control
T1 construct: E. coli-produced; single LysM; borders and tag not described; ligand-independent homodimer

Mgx1LysM = biological target: T2, Mgx1LysM (Zymoseptoria tritici, UniProt P9WEM2); assay: as above; type: binding; settings: 200 µM protein stock mixed 1:1 with 2 mM chitohexaose; room temperature overnight
T2 construct: mature protein, signal peptide removed; E. coli Origami, pETSUMO; 6xHis-SUMO tag cleaved with ULP1; single LysM
T2 sequence (P9WEM2 19-103): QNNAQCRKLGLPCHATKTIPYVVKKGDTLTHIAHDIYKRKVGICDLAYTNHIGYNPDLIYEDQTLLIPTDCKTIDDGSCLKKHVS

T1 sequence (F9XHX3 19-97): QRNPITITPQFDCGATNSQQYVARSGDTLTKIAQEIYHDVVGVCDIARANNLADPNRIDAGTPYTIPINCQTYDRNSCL

CC(=O)N[C@H]1[C@H](O[C@H]2[C@H](O)[C@@H](NC(C)=O)[C@H](O[C@H]3[C@H](O)[C@@H](NC(C)=O)C(O)O[C@@H]3CO)O[C@@H]2CO)O[C@H](CO)[C@@H](O[C@@H]2O[C@H](CO)[C@@H](O[C@@H]3O[C@H](CO)[C@@H](O[C@@H]4O[C@H](CO)[C@@H](O)[C@H](O)[C@H]4NC(C)=O)[C@H](O)[C@H]3NC(C)=O)[C@H](O)[C@H]2NC(C)=O)[C@@H]1O (some centres unmarked) [chitohexaose] was tested, and the “ligand-induced polymerization, centrifugation pellet with methylene blue” value (Mg1LysM) was “protein pellets (red arrowheads) as a consequence of polymerization for Mgx1LysM, Mg1LysM, and RiSLM” and the “ligand-induced polymerization, centrifugation pellet with methylene blue” value (Mgx1LysM) was “a clear Mgx1LysM pellet emerged upon incubation with chitin, and not in the absence”.
